Holding throughout (type): biochemical, cynomolgus monkey
The target in assay [1] is aldosterone synthase (CYP11B2) (Macaca fascicularis, UniProt A0A2K5UPL9). Description: Inhibition of aldosterone synthase (cynomolgus adrenal mitochondria, aldosterone by mass spectrometry). Conditions: 2 μM corticosterone substrate, 50 units CYP11B2, 90 min, 37° C.; read-out: Aldosterone Inhibition IC50. In a few lines:
(§1)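 Cynomolgus adrenal mitochondria (50 units CYP11B2 activity) incubated with 2 μM corticosterone in 100 mM potassium phosphate pH 7.4, 1% DMSO; started with 1 mM NADPH, 90 min at 37 °C. Aldosterone quantified by mass spectrometry; no-NADPH blank as 0%, no-compound as 100% activity, across compound concentrations.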

The subject of assay [2] is aldosterone synthase (CYP11B2). The description is as above. Conditions: selectivity for aldosterone synthase inhibition over cortisol synthase (CYP11B1) inhibition, fold. In a few lines: as §1
Assay [3] deals with cortisol synthase (CYP11B1) (Macaca fascicularis, UniProt A0A2K5ULY1). Description: Inhibition of cortisol synthesis (cynomolgus adrenal mitochondria, cortisol by mass spectrometry). The method in brief:
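Cynomolgus adrenal mitochondria (150 units CYP11B1 activity) incubated with 11-deoxycortisol in 100 mM potassium phosphate pH 7.4, 1% DMSO; reaction started with 1 mM NADPH, 90 min at 37° C, stopped with MeCN. Cortisol quantified by mass spectrometry; IC50 from 4-parameter logistic fit versus no-compound (100%) and no-NADPH (0%) controls.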

The mark [4] stands for this setting: 11-deoxycortisol substrate, 150 units CYP11B1; read-out: Cortisol Inhibition IC50.

Structures are written as SMILES. Where two headings read alike, the source gives them in different places.

Chain of aldosterone synthase (CYP11B2) (Macaca fascicularis, UniProt A0A2K5UPL9) (A0A2K5UPL9 1-503): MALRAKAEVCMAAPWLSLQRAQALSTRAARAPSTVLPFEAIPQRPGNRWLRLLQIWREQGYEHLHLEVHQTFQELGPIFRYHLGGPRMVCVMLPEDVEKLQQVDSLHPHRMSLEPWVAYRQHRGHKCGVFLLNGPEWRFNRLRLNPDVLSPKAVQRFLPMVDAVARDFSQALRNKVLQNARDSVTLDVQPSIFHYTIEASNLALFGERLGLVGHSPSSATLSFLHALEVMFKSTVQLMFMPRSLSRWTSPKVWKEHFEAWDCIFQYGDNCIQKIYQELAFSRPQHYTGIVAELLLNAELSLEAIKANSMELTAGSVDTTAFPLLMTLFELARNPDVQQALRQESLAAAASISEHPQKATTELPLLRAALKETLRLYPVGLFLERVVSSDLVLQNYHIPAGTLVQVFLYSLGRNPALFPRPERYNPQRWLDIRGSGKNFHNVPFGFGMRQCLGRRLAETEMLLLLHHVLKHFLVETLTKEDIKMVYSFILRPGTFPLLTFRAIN

As to `N#Cc1ccc(-n2cnc3c2C(=O)C[C@@H](C(N)=O)C3)cc1Cl` [C-AEB-A, (S)-1-(3-Chloro-4-cyano-phenyl)-7-oxo-4,5,6,7-tetrahydro-1H-benzoimidazole-5-carboxylic acid amide], the IC50 in assay [1] was 590 nM; in assay [3] (read-out: Cortisol Inhibition IC50; 11-deoxycortisol substrate, 150 units CYP11B1) it was > 30 µM. The molecule further registered a Selectivity in assay [2] of 51.

Take `CN(C)c1ccc(-n2cnc3c2C(=O)CC(C)(C)C3)cc1` [C-ABO, 3-(4-Dimethylamino-phenyl)-6,6-dimethyl-3,5,6,7-tetrahydro-benzoimidazol-4-one]: the results for the IC50 in assay [1] and in assay [3] (setting [4]) were 130 nM and 35 µM, respectively. Also, the Selectivity in assay [2] worked out at 270.

As to `COc1ccc(-n2cnc3c2C(=O)CC(C)(C)C3)cc1` [C-ABR, 3-(4-Methoxy-phenyl)-6,6-dimethyl-3,5,6,7-tetrahydro-benzoimidazol-4-one], the IC50 in assay [1] stood at 130 nM; in assay [3] (setting [4]) it was 21 µM. In addition, the Selectivity in assay [2] was found to be 150.

For `CC1(C)CC(=O)c2c(ncn2-c2cccc(Cl)c2)C1` [C-ABK, 3-(3-Chloro-phenyl)-6,6-dimethyl-3,5,6,7-tetrahydro-benzoimidazol-4-one], the values for the IC50 in assay [1] and in assay [3] (setting [4]) were 19 nM and 7 µM, respectively. In addition, in assay [2], the Selectivity is recorded as 370.

As to `COc1ccc2c(c1)CCC(n1cnc3c1C(=O)CC(C)(C)C3)C2` (stereo not drawn) [C-ACN, 3-(6-Methoxy-1,2,3,4-tetrahydro-naphthalen-2-yl)-6,6-dimethyl-3,5,6,7-tetrahydro-benzoimidazol-4-one], the values for the IC50 in assay [1] and in assay [3] (setting [4]) were 24 nM and 11 µM, respectively. In addition, the Selectivity in assay [2] worked out at 460.

For the molecule `CN1CCOc2cc(Cn3cnc4c3C(=O)CC(C)(C)C4)cnc21` [C-ADD, 6,6-Dimethyl-3-(4-methyl-3,4-dihydro-2H-pyrido[3,2-b][1,4]oxazin-7-ylmethyl)-3,5,6,7-tetrahydro-benzoimidazol-4-one], the IC50 in assay [1] stood at 540 nM; in assay [3] (setting [4]) it was 11 µM. The molecule further gave a Selectivity in assay [2] of 20.

As to `CC1(C)CC(=O)c2c(ncn2C2CCc3cc(C#N)ccc3C2)C1` (stereo not drawn) [C-ADN, 6-(5,5-Dimethyl-7-oxo-4,5,6,-tetrahydro-benzoimidazol-1-yl)-5,6,7,8-tetrahydro-naphthalene-2-carbonitrile], the IC50 was 190 nM in assay [1] and > 30 µM in assay [3] (setting [4]). The Selectivity in assay [2] was found to be 160.

`O=C1CC2(CCOCC2)Cc2ncn(-c3ccc(Cl)cc3)c21` [C-AAR, 3-(4-Chloro-phenyl)-6,6-3-o-tetrahydropyran-3,5,6,7-tetrahydro-benzoimidazol-4-one]: the IC50 in assay [1] is 69 nM; in assay [3] (setting [4]) it was 5 µM. The same molecule came in with a Selectivity in assay [2] of 73.

As to `CC1(C)CC(=O)c2c(ncn2CC2CC2)C1` [C-ADA, 3-Cyclopropylmethyl-6,6-dimethyl-3,5,6,7-tetrahydro-benzoimidazol-4-one], the IC50 in assay [1] came to 530 nM; in assay [3] (setting [4]), 12 µM. The molecule further displayed a Selectivity in assay [2] of 23.

Regarding `CC1(C)CC(=O)c2c(ncn2Cc2ccc(C(=O)NCCS(C)(=O)=O)cc2)C1` [C-ADU, 4-(5,5-Dimethyl-7-oxo-4,5,6,7-tetrahydro-benzoimidazol-1-ylmethyl)-N-(2-methanesulfonyl-ethyl)-benzamide], the IC50 in assay [1] came out at 210 nM; in assay [3] (setting [4]) it was 6.2 µM. Besides, the Selectivity in assay [2] was found to be 30.

In the case of `N#Cc1ccc(-n2cnc3c2C(=O)CCC3)c(C2CC2)c1` [C-AAK, 3-Cyclopropyl-4-(7-oxo-4,5,6,7-tetrahydro-benzoimidazol-1-yl)-benzonitrile], the IC50 in assay [1] was 34 nM; in assay [3] (setting [4]), 17 µM. Moreover, the Selectivity in assay [2] is reported as 500.

With `CC1(C)CC(=O)c2c(ncn2CC2CCCCC2)C1` [C-ACP, 3-Cyclohexylmethyl-6,6-dimethyl-3,5,6,7-tetrahydro-benzoimidazol-4-one], the half-maximal inhibitory concentration (IC50) in assay [1] came to 24 nM; in assay [3] (setting [4]), 5.9 µM. In assay [2], this molecule returned a Selectivity of 240.

Turning to `CN1C(=O)COc2cc(-n3cnc4c3C(=O)CCC4)ccc21` [C-AAN, 4-Methyl-7-(7-oxo-4,5,6,7-tetrahydro-benzoimidazol-1-yl)-4H-benzo[1,4]oxazin-3-one], the IC50 was 84 nM in assay [1] and > 30 µM in assay [3] (setting [4]). Moreover, the Selectivity in assay [2] is recorded as 360.

Regarding `CC1(C)CC(=O)c2c(ncn2C2CCc3ccccc32)C1` (stereo not drawn) [C-ACQ, 3-Indan-1-yl-6,6-dimethyl-3,5,6,7-tetrahydro-benzoimidazol-4-one], the IC50 in assay [1] was 220 nM; in assay [3] (setting [4]), > 30 µM. Moreover, in assay [2], the Selectivity was determined as 130.

Regarding `CC1(C)CC(=O)c2c(ncn2Cc2ccc(S(C)(=O)=O)cc2)C1` [C-ADP, 3-(4-Methanesulfonyl-benzyl)-6,6-dimethyl-3,5,6,7-tetrahydro-benzoimidazol-4-one], the results for the IC50 in assay [1] and in assay [3] (setting [4]) were 92 nM and 1.6 µM, respectively. The same molecule returned a Selectivity in assay [2] of 17.

In the case of `CC1(C)CC(=O)c2c(ncn2-c2ccc(Cl)c(F)c2)C1` [C-ABM, 3-(4-Chloro-3-fluoro-phenyl)-6,6-dimethyl-3,5,6,7-tetrahydro-benzoimidazol-4-one], the figures for the IC50 in assay [1] and in assay [3] (setting [4]) were 4.7 nM and 0.77 µM, respectively. The same molecule gave a Selectivity in assay [2] of 160.

For the molecule `N#Cc1ccc(-n2cnc3c2C(=O)CC2(CCC2)C3)cc1` [C-AAT, 4-(7-Oxospiro[4,6-dihydrobenzimidazole-5,1′-cyclobutan]-1-yl)benzonitrile], the IC50 in assay [1] stood at 3.8 nM; in assay [3] (setting [4]), 0.48 µM. The molecule also gave a Selectivity in assay [2] of 130.

For the molecule `Cc1cc(-n2cnc3c2C(=O)CC2(CCOCC2)C3)ccc1C#N` [C-AAO, 2-Methyl-4-(7-oxospiro[4,6-dihydrobenzoimidazole-5,4′-tetrahydropyran]-1-yl)benzonitrile], the IC50 came out at 77 nM in assay [1] and 2.3 µM in assay [3] (setting [4]). This molecule registered a Selectivity in assay [2] of 30.

With `N#Cc1ccc(-n2cnc3c2C(=O)CC2(CC2)C3)cc1` [C-AAX, 3-(4-Cyanophenyl)-6,6-spirocyclpropyl-3,5,6,7-tetrahydro-benzimidazol-4-one], the half-maximal inhibitory concentration (IC50) in assay [1] was 8.5 nM; in assay [3] (setting [4]), 1.9 µM. In assay [2], this molecule came in with a Selectivity of 230.

On to `CC1(C)CC(=O)c2c(ncn2-c2ccc(Cl)cc2)C1` [C-ABN, 3-(4-Chloro-phenyl)-6,6-dimethyl-3,5,6,7-tetrahydro-benzoimidazol-4-one], for which the figures for the IC50 in assay [1] and in assay [3] (setting [4]) were 15 nM and 1 µM, respectively. Besides, the Selectivity in assay [2] is 67.

With `Cn1ncc2ccc(-n3cnc4c3C(=O)CCC4)cc21` [C-AAH, 3-(1-Methyl-1H-indazol-6-yl)-3,5,67,-tetrahydro-benzoimidazol-4-one], the IC50 in assay [1] was 48 nM; in assay [3] (setting [4]) it was > 30 µM. The molecule also yielded a Selectivity in assay [2] of 630.

Consider `CC1(C)CC(=O)c2c(ncn2-c2ccc(C#N)cc2)C1` [C-ABX, 4-(5,5-Dimethyl-7-oxo-4,5,6,7-tetrahydro-benzoimidazol-1-yl)-benzonitrile], for which the IC50 in assay [1] was 17 nM; in assay [3] (setting [4]) it was 1.3 µM. Further, the Selectivity in assay [2] amounted to 80.

Take `Cn1c(=O)oc2cc(-n3cnc4c3C(=O)CCC4)ccc21` [C-AAM, 3-Methyl-6-(7-oxo-4,5,6,7-tetrahydro-benzoimidazol-1-yl)-3H-benzooxazol-2-one]: the IC50 in assay [1] was 120 nM; in assay [3] (setting [4]) it was > 30 µM. The Selectivity in assay [2] is recorded as 240.
